{"source": "ChEMBL document CHEMBL1255486", "about": "“Effect of vicriviroc on the QT/corrected QT interval and central nervous system in healthy subjects” (Antimicrob Agents Chemother, 2010)", "key": {"Homo sapiens [1]": {"system": "Homo sapiens", "test": "Cardiotoxicity in healthy human assessed as change in corrected QT interval at 30 mg/kg, po after 10 days by ECG", "assay_type": "toxicity, organism-based", "design": "dose 30 mg/kg, route oral", "conditions": "in vivo, 240 h"}, "[2]": {"test": "Cmax in healthy human at 150 […], po after 10 days", "assay_type": "ADME, organism-based", "design": "dose 150 mg/kg, route oral", "conditions": "in vivo"}, "[3]": {"test": "Tmax in healthy human at 150 […], po after 10 days", "assay_type": "ADME, organism-based", "design": "dose 150 mg/kg, route oral", "conditions": "in vivo"}, "[4]": {"test": "AUC (0 to 24 hrs) in healthy human at 150 […], po after 10 days", "assay_type": "ADME, organism-based", "design": "time < 24 hr, dose 150 mg/kg, route oral", "conditions": "plasma"}, "[5]": {"test": "Cmax in healthy human at 30 mg/kg, po after 10 days", "assay_type": "ADME, organism-based", "design": "dose 30 mg/kg, route oral", "conditions": "in vivo"}, "[6]": {"test": "Tmax in healthy human at 30 mg/kg, po after 10 days", "assay_type": "ADME, organism-based", "design": "dose 30 mg/kg, route oral", "conditions": "in vivo"}, "[7]": {"test": "AUC (0 to 24 hrs) in healthy human at 30 mg/kg, po after 10 days", "assay_type": "ADME, organism-based", "design": "time < 24 hr, dose 30 mg/kg, route oral", "conditions": "plasma"}, "Homo sapiens [8]": {"system": "Homo sapiens", "test": "Toxicity in healthy human assessed as fatigue at 200 […], po administered as single dose", "assay_type": "organism-based", "design": "route oral", "conditions": "in vivo"}, "Homo sapiens [9]": {"system": "Homo sapiens", "test": "Toxicity in healthy human assessed as headache at 200 […], po administered as single dose", "assay_type": "organism-based", "design": "route oral", "conditions": "in vivo"}, "Homo sapiens [10]": {"system": "Homo sapiens", "test": "Toxicity in healthy human assessed as pollakiuria at 200 […], po administered as single dose", "assay_type": "organism-based", "design": "route oral", "conditions": "in vivo"}, "Homo sapiens [11]": {"system": "Homo sapiens", "test": "Toxicity in healthy human assessed as EEG abnormality at 200 mg/kg, po administered as single dose", "assay_type": "organism-based", "design": "dose 200 mg/kg, route oral", "conditions": "in vivo"}, "Homo sapiens [12]": {"system": "Homo sapiens", "test": "Toxicity in healthy human assessed as nausea at 200 […], po administered as single dose", "assay_type": "organism-based", "design": "route oral", "conditions": "in vivo"}, "Homo sapiens [13]": {"system": "Homo sapiens", "test": "Toxicity in healthy human assessed as fatigue at 150 […], po once daily for 7 days", "assay_type": "organism-based", "design": "route oral", "conditions": "in vivo, 168 h"}, "Homo sapiens [14]": {"system": "Homo sapiens", "test": "Toxicity in healthy human assessed as headache at 150 […], po once daily for 7 days", "assay_type": "organism-based", "design": "route oral", "conditions": "in vivo, 168 h"}, "Homo sapiens [15]": {"system": "Homo sapiens", "test": "Toxicity in healthy human assessed as pollakiuria at 150 […], po once daily for 7 days", "assay_type": "organism-based", "design": "route oral", "conditions": "in vivo, 168 h"}, "Homo sapiens [16]": {"system": "Homo sapiens", "test": "Toxicity in healthy human assessed as EEG abnormality at 150 […], po once daily for 7 days", "assay_type": "organism-based", "design": "dose 150 mg/kg, route oral", "conditions": "in vivo, 168 h"}, "Homo sapiens [17]": {"system": "Homo sapiens", "test": "Toxicity in healthy human assessed as nausea at 150 […], po once daily for 7 days", "assay_type": "organism-based", "design": "route oral", "conditions": "in vivo, 168 h"}, "Homo sapiens [18]": {"system": "Homo sapiens", "test": "Toxicity in healthy human assessed as fatigue at 250 […], po administered as single dose", "assay_type": "organism-based", "design": "route oral", "conditions": "in vivo"}, "Homo sapiens [19]": {"system": "Homo sapiens", "test": "Toxicity in healthy human assessed as headache at 250 […], po administered as single dose", "assay_type": "organism-based", "design": "route oral", "conditions": "in vivo"}, "Homo sapiens [20]": {"system": "Homo sapiens", "test": "Toxicity in healthy human assessed as pollakiuria at 250 […], po administered as single dose", "assay_type": "organism-based", "design": "route oral", "conditions": "in vivo"}, "Homo sapiens [21]": {"system": "Homo sapiens", "test": "Toxicity in healthy human assessed as EEG abnormality at 250 mg/kg, po administered as single dose", "assay_type": "organism-based", "design": "dose 250 mg/kg, route oral", "conditions": "in vivo"}, "Homo sapiens [22]": {"system": "Homo sapiens", "test": "Toxicity in healthy human assessed as nausea at 250 […], po administered as single dose", "assay_type": "organism-based", "design": "route oral", "conditions": "in vivo"}, "Homo sapiens [23]": {"system": "Homo sapiens", "test": "Toxicity in healthy human assessed as fatigue at 200 […], po once daily for 7 days", "assay_type": "organism-based", "design": "route oral", "conditions": "in vivo, 168 h"}, "Homo sapiens [24]": {"system": "Homo sapiens", "test": "Toxicity in healthy human assessed as headache at 200 […], po once daily for 7 days", "assay_type": "organism-based", "design": "route oral", "conditions": "in vivo, 168 h"}, "Homo sapiens [25]": {"system": "Homo sapiens", "test": "Toxicity in healthy human assessed as pollakiuria at 200 […], po once daily for 7 days", "assay_type": "organism-based", "design": "route oral", "conditions": "in vivo, 168 h"}, "Homo sapiens [26]": {"system": "Homo sapiens", "test": "Toxicity in healthy human assessed as EEG abnormality at 200 mg/kg, po once daily for 7 days", "assay_type": "organism-based", "design": "dose 200 mg/kg, route oral", "conditions": "in vivo, 168 h"}, "Homo sapiens [27]": {"system": "Homo sapiens", "test": "Toxicity in healthy human assessed as nausea at 200 […], po once daily for 7 days", "assay_type": "organism-based", "design": "route oral", "conditions": "in vivo, 168 h"}, "Homo sapiens [28]": {"system": "Homo sapiens", "test": "Toxicity in healthy human assessed as fatigue at 300 […], po administered as single dose", "assay_type": "organism-based", "design": "route oral", "conditions": "in vivo"}, "Homo sapiens [29]": {"system": "Homo sapiens", "test": "Toxicity in healthy human assessed as headache at 300 […], po administered as single dose", "assay_type": "organism-based", "design": "route oral", "conditions": "in vivo"}, "Homo sapiens [30]": {"system": "Homo sapiens", "test": "Toxicity in healthy human assessed as pollakiuria at 300 […], po administered as single dose", "assay_type": "organism-based", "design": "route oral", "conditions": "in vivo"}, "Homo sapiens [31]": {"system": "Homo sapiens", "test": "Toxicity in healthy human assessed as EEG abnormality at 300 mg/kg, po administered as single dose", "assay_type": "organism-based", "design": "dose 300 mg/kg, route oral", "conditions": "in vivo"}, "Homo sapiens [32]": {"system": "Homo sapiens", "test": "Toxicity in healthy human assessed as nausea at 300 […], po administered as single dose", "assay_type": "organism-based", "design": "route oral", "conditions": "in vivo"}, "Homo sapiens [33]": {"system": "Homo sapiens", "test": "Toxicity in healthy human assessed as fatigue at 250 […], po once daily for 7 days", "assay_type": "organism-based", "design": "route oral", "conditions": "in vivo, 168 h"}, "Homo sapiens [34]": {"system": "Homo sapiens", "test": "Toxicity in healthy human assessed as headache at 250 […], po once daily for 7 days", "assay_type": "organism-based", "design": "route oral", "conditions": "in vivo, 168 h"}, "Homo sapiens [35]": {"system": "Homo sapiens", "test": "Toxicity in healthy human assessed as pollakiuria at 250 […], po once daily for 7 days", "assay_type": "organism-based", "design": "route oral", "conditions": "in vivo, 168 h"}}}
{"smiles": "COC[C@@H](c1ccc(C(F)(F)F)cc1)N1CCN(C2(C)CCN(C(=O)c3c(C)ncnc3C)CC2)C[C@@H]1C", "note": "[VICRIVIROC]", "values": [{"measurement": "Activity", "setting": "Homo sapiens [1]", "value": "Non-toxic"}, {"measurement": "Cmax", "setting": "[2]", "value": 1900, "unit": "ng/mL"}, {"measurement": "Tmax", "setting": "[3]", "value": 1.5, "unit": "h"}, {"measurement": "AUC at 24 h", "setting": "[4]", "value": 32200, "unit": "ng·h/mL"}, {"measurement": "Cmax", "setting": "[5]", "value": 403, "unit": "ng/mL"}, {"measurement": "Tmax", "setting": "[6]", "value": 2, "unit": "h"}, {"measurement": "AUC at 24 h", "setting": "[7]", "value": 6670, "unit": "ng·h/mL"}, {"measurement": "Activity", "setting": "Homo sapiens [8]", "value": 0, "unit": "%"}, {"measurement": "Activity", "setting": "Homo sapiens [9]", "value": 0, "unit": "%"}, {"measurement": "Activity", "setting": "Homo sapiens [10]", "value": 0, "unit": "%"}, {"measurement": "Activity", "setting": "Homo sapiens [11]", "value": 0, "unit": "%"}, {"measurement": "Activity", "setting": "Homo sapiens [12]", "value": 0, "unit": "%"}, {"measurement": "Activity", "setting": "Homo sapiens [13]", "value": 50, "unit": "%"}, {"measurement": "Activity", "setting": "Homo sapiens [14]", "value": 50, "unit": "%"}, {"measurement": "Activity", "setting": "Homo sapiens [15]", "value": 38, "unit": "%"}, {"measurement": "Activity", "setting": "Homo sapiens [16]", "value": 0, "unit": "%"}, {"measurement": "Activity", "setting": "Homo sapiens [17]", "value": 17, "unit": "%"}, {"measurement": "Activity", "setting": "Homo sapiens [18]", "value": 13, "unit": "%"}, {"measurement": "Activity", "setting": "Homo sapiens [19]", "value": 38, "unit": "%"}, {"measurement": "Activity", "setting": "Homo sapiens [20]", "value": 0, "unit": "%"}, {"measurement": "Activity", "setting": "Homo sapiens [21]", "value": 0, "unit": "%"}, {"measurement": "Activity", "setting": "Homo sapiens [22]", "value": 0, "unit": "%"}, {"measurement": "Activity", "setting": "Homo sapiens [23]", "value": 0, "unit": "%"}, {"measurement": "Activity", "setting": "Homo sapiens [24]", "value": 13, "unit": "%"}, {"measurement": "Activity", "setting": "Homo sapiens [25]", "value": 13, "unit": "%"}, {"measurement": "Activity", "setting": "Homo sapiens [26]", "value": 0, "unit": "%"}, {"measurement": "Activity", "setting": "Homo sapiens [27]", "value": 13, "unit": "%"}, {"measurement": "Activity", "setting": "Homo sapiens [28]", "value": 0, "unit": "%"}, {"measurement": "Activity", "setting": "Homo sapiens [29]", "value": 13, "unit": "%"}, {"measurement": "Activity", "setting": "Homo sapiens [30]", "value": 0, "unit": "%"}, {"measurement": "Activity", "setting": "Homo sapiens [31]", "value": 13, "unit": "%"}, {"measurement": "Activity", "setting": "Homo sapiens [32]", "value": 13, "unit": "%"}, {"measurement": "Activity", "setting": "Homo sapiens [33]", "value": 0, "unit": "%"}, {"measurement": "Activity", "setting": "Homo sapiens [34]", "value": 25, "unit": "%"}, {"measurement": "Activity", "setting": "Homo sapiens [35]", "value": 0, "unit": "%"}]}
